Laboratory results taken from patent US8487108B2, “Piperidinyl carbamate intermediates for the synthesis of aspartic protease inhibitors” (Vitae Pharmaceuticals, Inc., priority 2005, dated 2013).

Target: T1, trypsin-activated recombinant human renin (Homo sapiens, UniProt P00797)
T1 sequence (P00797 67-406): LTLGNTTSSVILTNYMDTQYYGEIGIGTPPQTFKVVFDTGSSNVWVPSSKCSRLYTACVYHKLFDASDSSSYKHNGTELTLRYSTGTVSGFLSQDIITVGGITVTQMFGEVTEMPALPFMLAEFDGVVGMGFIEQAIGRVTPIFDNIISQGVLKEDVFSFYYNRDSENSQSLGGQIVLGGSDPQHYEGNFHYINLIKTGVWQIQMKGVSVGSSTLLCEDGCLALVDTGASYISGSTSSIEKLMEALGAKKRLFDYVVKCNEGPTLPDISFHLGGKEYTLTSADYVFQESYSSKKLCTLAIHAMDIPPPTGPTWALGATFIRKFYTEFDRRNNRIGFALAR
Assay: Renin fluorescence assay (internally quenched peptide substrate)
Assay type: biochemical
Settings: compounds I*
Method in brief: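 Compounds (1 nM–10 μM final, DMSO) were mixed with internally quenched angiotensinogen-sequence substrate in pH 7.0 BES/NaCl/BSA buffer, then 0.2-2 nM trypsin-activated human renin added. Rate from the linear fluorescence increase (340 nm excitation, 495 nm emission) over 60-360 min at rt, compared with uninhibited control.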

Q: With `CNC[C@H](CC1CCC(=O)CC1)NC(=O)N1CCC[C@@H]([C@@H](OCCNC(=O)OC)c2cccc(Cl)c2)C1` [I*-80a, methyl 2-((R)-(3-chlorophenyl)((R)-1-((S)-1-(methylamino)-3-(4-oxocyclohexyl)propan-2-ylcarbamoyl)piperidin-3-yl)methoxy)ethylcarbamate] as the compound, how does the IC50 read?
A: < 10 nM

Q: `COC(=O)NCCO[C@@H](c1cccc(Cl)c1)[C@@H]1CCCN(C(=O)N[C@](C)(CN)CC2CCCCC2)C1` [I*-59a, methyl 2-((R)-((R)-1-((S)-1-amino-3-cyclohexyl-2-methylpropan-2-ylcarbamoyl)piperidin-3-yl)(3-chlorophenyl)methoxy)ethylcarbamate] was tested. Which IC50 did it give?
A: < 10 nM

Q: For `COCC(C)(C)C[C@H](N)CNC(=O)N1CCC[C@@H]([C@@H](OCCNC(=O)OC)c2cccc(Cl)c2)C1` [I*-35a, methyl 2-((R)—((R)-1-((S)-2-amino-5-methoxy-4,4-dimethylpentylcarbamoyl)piperidin-3-yl)(3-chlorophenyl)methoxy)ethylcarbamate], which IC50 is on record?
A: < 20 nM

Q: `CNC[C@H](CC1CCCOCC1)NC(=O)N1CCC[C@@H]([C@@H](OCCNC(=O)OC)c2cccc(F)c2)C1` (stereo partly drawn) [I*-47a, methyl 2-((R)-(3-fluorophenyl)((3R)-1-((S)-1-(methylamino)-3-(oxepan-4-yl)propan-2-ylcarbamoyl)piperidin-3-yl)methoxy)ethylcarbamate] was tested. Which IC50 did it give?
A: < 10 nM

Q: Which IC50 does the source give for `CNC[C@H](CC1CCOCC1)NC(=O)N1CCC[C@@H]([C@@H](OCCNC(=O)OC)c2cc(C)ccc2C)C1` [I*-37a, methyl 2-((R)-(2,5-dimethylphenyl)((R)-1-((S)-1-(methylamino)-3-(tetrahydro-2H-pyran-4-yl)propan-2-ylcarbamoyl)piperidin-3-yl)methoxy)ethylcarbamate] here?
A: < 20 nM

Q: How did the IC50 turn out when `CNC[C@H](CC12CC3CC(CC(C3)C1)C2)NC(=O)N1CCC[C@@H]([C@@H](OCCNC(=O)OC)c2cccc(F)c2)C1` [I*-145a, methyl 2-((R)-((R)-1-((S)-1-(1-adamantyl)-3-(methylamino)propan-2-ylcarbamoyl)piperidin-3-yl)(3-fluorophenyl)methoxy)ethylcarbamate] was run?
A: < 10 nM

Q: For `CCC(C)(C)C[C@@H](CNC)NC(=O)N1CCC[C@@H]([C@@H](OCCNC(=O)OC)c2cccc(F)c2)C1` [I*-7a, methyl 2-((R)-((R)-1-((S)-4,4-dimethyl-1-(methylamino)hexan-2-ylcarbamoyl)piperidin-3-yl)(3-fluorophenyl)methoxy)ethylcarbamate], which IC50 is on record?
A: < 10 nM

Q: For `CNC[C@H](CC1CCOCC1)NC(=O)N1CCC[C@@H]([C@@](C)(OCCNC(=O)OC)c2cccc(Cl)c2)C1` [I*-103a, methyl 2-((R)-1-(3-chlorophenyl)-1-((R)-1-((S)-1-(methylamino)-3-(tetrahydro-2H-pyran-4-yl)propan-2-ylcarbamoyl)piperidin-3-yl)ethoxy)ethylcarbamate], which IC50 is on record?
A: < 20 nM

Q: With `CNC[C@H](CC1(C)CCCCC1)NC(=O)N1CCC[C@@H]([C@@H](OCCNC(=O)OC)c2cc(F)cc(F)c2)C1` [I*-95a, methyl 2-((R)-(3,5-difluorophenyl)((R)-1-((S)-1-(methylamino)-3-(1-methylcyclohexyl)propan-2-ylcarbamoyl)piperidin-3-yl)methoxy)ethylcarbamate] as the compound, how does the IC50 read?
A: < 10 nM

Q: For `CNC[C@H](CC1CCOCC1)NC(=O)N1CCC[C@@H]([C@@H](OCCNC(=O)OC)c2cccc(C(F)(F)F)c2)C1` [I*-144a, methyl 2-((R)-((R)-1-((S)-1-(methylamino)-3-(tetrahydro-2H-pyran-4-yl)propan-2-ylcarbamoyl)piperidin-3-yl)(3-(trifluoromethyl)phenyl)methoxy)ethylcarbamate], which IC50 is on record?
A: > 50 nM

Q: For `CNC[C@H](CCC1(OC)CCCC1)NC(=O)N1CCC[C@@H]([C@@H](OCCNC(=O)OC)c2cccc(F)c2)C1` [I*-78a, methyl 2-((R)-(3-fluorophenyl)((R)-1-((S)-4-(1-methoxycyclopentyl)-1-(methylamino)butan-2-yl-carbamoyl)piperidin-3-yl)methoxy)ethylcarbamate], which IC50 is on record?
A: > 50 nM

Q: How did the IC50 turn out when `CNC[C@@H](NC(=O)N1CCC[C@@H]([C@@H](OCCNC(=O)OC)c2cccc(F)c2)C1)[C@@H](O)C1CCCC1` [I*-27a, methyl 2-((R)-((R)-1-((1S,2R)-1-cyclopentyl-1-hydroxy-3-(methylamino)propan-2-ylcarbamoyl)piperidin-3-yl)(3-fluorophenyl)methoxy)ethylcarbamate] was run?
A: < 10 nM

Q: With `CNC[C@H](CC1CCC(F)(F)CC1)NC(=O)N1CCC[C@@H]([C@@H](OCCNC(=O)OC)c2cc(F)cc(F)c2)C1` [I*-147a, methyl 2-((R)-((R)-1-((S)-1-(4,4-difluorocyclohexyl)-3-(methylamino)propan-2-ylcarbamoyl)piperidin-3-yl)(3,5-difluorophenyl)methoxy)ethylcarbamate] as the compound, how does the IC50 read?
A: < 1 nM

Q: Which IC50 does the source give for `CNC[C@H](CC1CCCCC1)NC(=O)N1CCC[C@H]([C@@H](OCCNC(=O)OC)c2c(C)ccc(F)c2F)C1` [I*-97a, methyl 2-((R)-((S)-1-((S)-1-cyclohexyl-3-(methylamino)propan-2-ylcarbamoyl)piperidin-3-yl)(2,3-difluoro-6-methylphenyl)methoxy)ethylcarbamate] here?
A: < 20 nM

Q: With `CNC[C@H](CC1CCCCC1)NC(=O)N1CCC[C@@H]([C@@H](OCCNc2nccs2)c2cccc(Cl)c2)C1` [I*-128a, (R)-3-((R)-(3-chlorophenyl)(2-(thiazol-2-ylamino)ethoxy)methyl)-N-((S)-1-cyclohexyl-3-(methylamino)propan-2-yl)piperidine-1-carboxamide] as the compound, how does the IC50 read?
A: > 50 nM

Q: How did the IC50 turn out when `CNC[C@H](CC1CCOC1)NC(=O)N1CCC[C@@H]([C@@H](OCCNC(=O)OC)c2cccc(F)c2)C1` (stereo partly drawn) [I*-6a, methyl 2-((R)-(3-fluorophenyl)((3R)-1-((S)-1-(methylamino)-3-(tetrahydrofuran-3-yl)propan-2-ylcarbamoyl)piperidin-3-yl)methoxy)ethylcarbamate] was run?
A: > 50 nM

Q: How did the IC50 turn out when `CNC[C@H](C[C@H]1C[C@@H](C)O[C@@H](C)C1)NC(=O)N1CCC[C@@H]([C@@H](OCCNC(=O)OC)c2cccc(F)c2)C1` [I*-77a, methyl 2-((R)-((R)-1-((S)-1-((2S,4r,6R)-2,6-dimethyl-tetrahydro-2H-pyran-4-yl)-3-(methylamino)propan-2-ylcarbamoyl)piperidin-3-yl)(3-fluorophenyl)methoxy)ethylcarbamate] was run?
A: > 50 nM

Q: How did the IC50 turn out when `CNC[C@@H](NC(=O)N1CCC[C@@H]([C@@H](OCCNC(=O)OC)c2cccc(Cl)c2)C1)[C@@H](O)C1CCCCC1` [I*-100a, methyl 2-((R)-(3-chlorophenyl)((R)-1-((1S,2R)-1-cyclohexyl-1-hydroxy-3-(methylamino)propan-2-ylcarbamoyl)piperidin-3-yl)methoxy)ethylcarbamate] was run?
A: < 1 nM

Q: Which IC50 does the source give for `CNC[C@H](CC1CCCCC1)NC(=O)N1CCC[C@@H]([C@@H](OCCNC(=O)OC)c2ccccc2)C1` (mixture of isomers) [I*-2a, methyl 2-((R)—((R)-1-((±)-1-cyclohexyl-3-(methylamino)propan-2-ylcarbamoyl)piperidin-3-yl)(phenyl)methoxy)ethylcarbamate] here?
A: < 10 nM

Q: For `CNC[C@H](CC1CCCCC1)NC(=O)N1CCC[C@@H]([C@@H](OCCNC(=O)OC)c2cc(F)ccc2C)C1` [I*-40a, methyl 2-((R)-((R)-1-((S)-1-cyclohexyl-3-(methylamino)propan-2-ylcarbamoyl)piperidin-3-yl)(5-fluoro-2-methylphenyl)methoxy)ethylcarbamate], which IC50 is on record?
A: < 1 nM

Q: For `CNC[C@H](C[C@H]1CCCCOC1)NC(=O)N1CCC[C@@H]([C@@H](OCCNC(=O)OC)c2cccc(F)c2)C1` [I*-55a, methyl 2-((R)-(3-fluorophenyl)((R)-1-((S)-1-(methylamino)-3-((R)-oxepan-3-yl)propan-2-ylcarbamoyl)piperidin-3-yl)methoxy)ethylcarbamate], which IC50 is on record?
A: < 1 nM

Q: How did the IC50 turn out when `CCNC(=O)CO[C@@H](c1cccc(Cl)c1)[C@@H]1CCCN(C(=O)N[C@H](CNC)C[C@H]2CCCOC2)C1` [I*-30a, (R)-3-((R)-(3-chlorophenyl)(2-(ethylamino)-2-oxoethoxy)methyl)-N—((S)-1-(methylamino)-3-((R)-tetrahydro-2H-pyran-3-yl)propan-2-yl)piperidine-1-carboxamide] was run?
A: < 20 nM

Q: For `CNC[C@H](CC1CCOCC1)NC(=O)N1CCC[C@@H]([C@@H](OCCNC(=O)OC)c2cc(F)cc(Cl)c2)C1` [I*-121a, methyl 2-((R)-(3-chloro-5-fluorophenyl)((R)-1-((S)-1-(methylamino)-3-(tetrahydro-2H-pyran-4-yl)propan-2-ylcarbamoyl)piperidin-3-yl)methoxy)ethylcarbamate], which IC50 is on record?
A: < 20 nM

Q: Which IC50 does the source give for `CNC[C@H](CC1CCC(O)CC1)NC(=O)N1CCC[C@@H]([C@@H](OCCNC(=O)OC)c2cccc(F)c2)C1` (stereo partly drawn) [I*-51a, methyl 2-((R)-(3-fluorophenyl)((R)-1-((S)-1-(4-hydroxycyclohexyl)-3-(methylamino)propan-2-ylcarbamoyl)piperidin-3-yl)methoxy)ethylcarbamate] here?
A: > 50 nM

Q: `CNC[C@H](CC1CCOCC1)NC(=O)N1CCC[C@@H]([C@@H](OCCNC(=O)OC)c2cccc(F)c2)C1` [I*-26a, methyl 2-((R)-(3-fluorophenyl)((R)-1-((S)-1-(methylamino)-3-(tetrahydro-2H-pyran-4-yl)propan-2-ylcarbamoyl)piperidin-3-yl)methoxy)ethylcarbamate] was tested. Which IC50 did it give?
A: < 50 nM
